The nature of experiment [1]: Antagonistic activity was measured by the inhibition of Gamma-aminobutyric acid type B receptor binding to rat brain synaptosomes. Type of experiment: subcellular.
For experiment [2], the species on record is Cavia porcellus. The experiment is described as follows: Antagonistic activity was measured by the reversal inhibition of EFS stimulated neuronal cholinergic contraction of guinea pig tracheal rings at 300 uM. The following applies: Trachea. The class given is functional.
Experiment [3] is filed under the species Cavia porcellus. The experiment is described as follows: Antagonistic activity was measured by the reversal inhibition of EFS stimulated neuronal cholinergic contraction of guinea pig tracheal rings. Type of experiment: functional. The following applies: Trachea.

The IC50 is the concentration that gives 50% inhibition. Turning to `CC[C@@H]1CO[C@H](CC(=O)O)CN1`, the IC50 in experiment [1] was greater than 100 µM.
For orientation: inhibition means the percentage by which the read-out fell short of the control. For the compound `O=C(O)CC1CNCCO1` (stereo not given), in experiment [1], the IC50 was greater than 100 µM. In the experiment listed under Cavia porcellus [2], the inhibition at 300 µM was found to be 46%.
Regarding `O=C(O)CC1CNC2(CC2)CO1` (racemic), the IC50 in experiment [1] is 37 µM.
`CC1COC(CC(=O)O)CN1` (racemic; form 1): the IC50 in experiment [1] amounted to 37 µM. Also, the inhibition at 300 µM in the experiment filed under Cavia porcellus [2] was determined as 76%.
On to `CC1(C)COC(CC(=O)O)CN1` (stereo in doubt; 24), for which the IC50 in experiment [1] was greater than 100 µM.
Consider `CC1(C)CO[C@@H](CC(=O)O)CN1`, for which the IC50 in experiment [1] amounted to 1.1 µM.
For `CCOC(OCC)P(=O)(O)CCCN`, the IC50 was determined as 62 µM in experiment [1] and 65 µM in the experiment filed under Cavia porcellus [3]. Besides, the inhibition at 300 µM in the experiment filed under Cavia porcellus [2] is 50%.
`CC[C@@H]1CO[C@@H](CC(=O)O)CN1` gave an IC50 in experiment [1] of 10 µM. The inhibition at 300 µM in the experiment filed under Cavia porcellus [2] was determined as 95%.
Take `CCC1(CO)COC(CC(=O)O)CN1` (racemic; form 2): in experiment [1], the IC50 worked out at 100 µM.
On the same count and under the same terms, the result for `CC[C@H]1CO[C@H](CC(=O)O)CN1` reads greater than 100 µM.
Regarding `CC1(C)COC(CC(=O)O)CN1` (racemic), the results for the IC50 (in experiment [1]; in the experiment listed under Cavia porcellus [3]) were 3 µM and 4.6 µM, respectively.
For `CC1(CO)COC(CC(=O)O)CN1` (racemic; form 1) the same measures were 2 µM and 4.5 µM.
For the compound `O=C(O)CC1CNC2(CCCC2)CO1` (racemic), the IC50 in experiment [1] stood at 11 µM. Moreover, in the experiment filed under Cavia porcellus [2], the inhibition at 300 µM turned out to be 97%.
For the compound `CCC1(CO)COC(CC(=O)O)CN1` (racemic; form 1), in experiment [1], the IC50 came to 19 µM. In addition, the inhibition at 300 µM in the experiment listed under Cavia porcellus [2] is 99%.
For the compound `CC1(CO)COC(CC(=O)O)CN1` (racemic; form 2), the IC50 in experiment [1] is 5 µM.
Turning to `CC1COC(CC(=O)O)CN1` (racemic; form 2), the IC50 in experiment [1] turned out to be 9 µM.

The values are drawn from ChEMBL document CHEMBL1129107, “Substituted morpholine-2S-acetic acid derivatives: Sch 50911 and related compounds as novel GABAB antagonists” (Bioorg Med Chem Lett, 1996).
